The results in this text go back to patent publication US6177475A, “Methods of using integrin modulators for treatment of inflammation” (priority 1997, dated 2001).

In test [1] the test system is human sperm / zona-free hamster oocytes. Briefly: Hamster oocyte penetration assay with capacitated human sperm. The conditions noted are these: 200 micromoles per l; 30 min pretreatment of sperm and oocytes. The test is classed as cell-based. On the procedure: The activity of Ajoene in the hamster oocyte penetration assay was tested. This assay is routinely used to test the ability of capacitated human sperm to penetrate oocytes.
To obtain oocytes, mature hamsters (on day 1 of the estrous cycle) were injected intraperitoneally with 40 International Units (IU) pregnant mare serum gonadotropin (PMSG), followed by 40 IU human chorionic gonadotropin (HCG) 55 hours late. After 16 hours, the animals were sacrificed by intracardiac injection of 0.1 ml T61 (euthanizing agent), the oviducts were removed, and the cumulus mass was collected. Cumulus cells were removed by hyaluronidase treatment, and the freed oocytes were transferred into a watchglass containing 3 ml Biggers-Whitter-Whittingham (BWW) medium supplemented with human serum albumin (HSA) (BWW/HSA; pH 7.5). […]
Human sperm was from a donor with known fertility (No. 113). […] A small portion of the original sample was analyzed (computer-assisted sperm analysis) using the Cell-Soft package. […] The swim-up was collected (about 0.5 ml), the cells were counted (Makler chamber), and their motility determined (%). […] Thereafter, motility and cell density were determined once again, and the sample was divided into three equal portions, each to be subjected to appropriate treatment. […]

A further test concerns HSV-2 strain G. Kind of test: Herpes simplex virus infection of WI-38 fibroblasts (ELISA for HSV antigens). In kind it is cell-based. The conditions noted are these: Human alphaherpesvirus 2, WI-38, 24 hours. On the procedure:
The effect on herpes simplex virus (HSV) infection was assessed using human embryonic lung fibroblast line WI-38 and HSV-2 strain G (derived from a human with the genital infection). Semiconfluent fibroblast monolayers grown in 96-well culture plates (10^5 cells per well) were exposed to serial dilutions of Ajoene or vehicle control, followed immediately by addition of HSV-2 (5000 CCID50 per well). After 24 hours of culturing, the supernatants were examined by ELISA for the content of HSV antigens.
On the technique in general: In an ELISA, binding on a coated surface is turned into a signal by an enzyme label.

Test [2] deals with HIV-1LBi (HIV-infected MOLT-4 cells, syncytiotrophoblasts). Kind of test: Lymphocyte-mediated HIV infection of syncytiotrophoblasts. The test is classed as cell-based. As to conditions: 200 micromoles per liter, 24 hours, virtually all colonies. The source says:
Human fetal placental epithelial cells, known as syncytiotrophoblasts, were organized in a monolayer and exposed to HIV-infected lymphocytic cells and, as a negative control, to uninfected cells of the same type. This experimental system, closely simulating the actual conditions under which syncytiotrophoblasts would be exposed to HIV-infected cells in vivo, was used to assess integrin-modulating effects of Ajoene.
In order to assess the ability of Ajoene to inhibit lymphocyte-mediated HIV infection of syncytiotrophoblasts, HIV-1LBi -infected MOLT-4 cells were added to adherent cultures of uninfected syncytiotrophoblasts in the presence and absence of Ajoene. Various additional control conditions were also established. First, some wells received filtered (0.45 micrometer) supernatant of cell-free HIV from infected cell cultures. Yet other negative controls included syncytiotrophoblasts cultured alone and syncytiotrophoblasts cultured with uninfected MOLT-4 cells. After 24 hours, the cocultures were washed to removed unbound lymphocytes, fixed, permeabilized, stained for viral core antigens (p24 and p55), and viewed under a fluorescence microscope.

For test [3], the system named is MT-2 cells / K562/VCAM-1 cells (HTLV-I). Briefly: Syncytium formation of HTLV-I-infected MT-2 cells with K562/VCAM-1 cells. In kind it is cell-based. The conditions noted are these: Primate T-lymphotropic virus 1, MT2, 4 h. The source says: MT-2 cells harbor the complete genome of human T cell lymphotropic virus type 1 (HTLV-I), and they transmit the virus to susceptible uninfected cells in cocultures. The transmission manifests itself as fusion of MT-2 cells with the uninfected cells, followed by syncytium formation. K562 cells transfected with VCAM-1, a ligand of the integrin VIA-4, were used as a fusion partner for MT-2 cells. MT-2 and K562/VCAM-1 cells were washed and resuspended in complete RPMI medium at a density of 2×10^6 /ml. MT2 cells were seeded into flat-bottom 96-well microtiter plates (100 microliters per well). Serial dilutions of Ajoene or of the disintegrin kistrin (final concentration) were introduced into the wells, and the plate was incubated for 30 min prior to addition of 100 microliters of K562/VCAM-1 cells. The plates were then incubated for 4 h before scoring syncytium formation.

Another test concerns VLA-4 (CS-1). Briefly: VLA-4-dependent adhesion of Jurkat and MV3 cells to CS-1. The test is classed as cell-based, human. As to conditions: in this concentration range. On the procedure:
Microtiter plates were coated with ligands of the integrin VLA-4, i.e., recombinant human VCAM-1 (500 nanograms per well) or the fragment of connective segment of human fibronectin (CS-1), covalently attached to ovalbumin (5 micrograms per well) by overnight incubation (4° C.) with solutions of the proteins in phosphate-buffered saline (PBS). The plates were blocked with 1% bovine serum albumin (BSA) in Hanks' buffered salt solution (HBSS-BSA). The cells (Jurkat or human melanoma MV3) were labeled with the fluorescent dye 5-chloromethylfluorescein diacetate (CMFDA) and introduced into the wells of the plates (10^5 cells per well) together with varying amounts of Ajoene. After incubation at 37° C. for 1 h, the unbound cells were removed by aspiration and the wells washed four times with HBSS-BSA. Thereafter, the bound cells were lysed with 0.5% Triton X-100, and the fluorescence was measured using a Cytofluor 2300 plate reader. The number of adherent cells was calculated from a standard dilution curve of Triton X-100 lysates of the CMFDA-labeled cells.

Molecules are shown by their SMILES.

Turning to `C=CCSSC=CC[S+]([O-])CC=C` (stereo not shown) [Ajoene, 4,5,9-trithiadodeca-1,6,11-triene-9-oxide], the “Penetration (penetrated oocytes / total oocytes)” value in test [1] came to 0%. Also, the IC50 (commonly the concentration at which inhibition is half-maximal) with HSV-2 strain G was 6 µM; in test [3] (read-out: IC50 for syncytium formation) it was roughly 0.6 µM. The IC100 in the test on HSV-2 strain G (read-out: concentration completely preventing HSV infection) is 17 µM; in test [3] (read-out: IC100 for syncytium formation), 4.3 µM. Also, in test [2], the “prevention of lymphocyte-mediated HIV infection of syncytiotrophoblasts” value is “totally prevented”. The “inhibition of adhesion to CS-1” value with VLA-4 (CS-1) was “no inhibition of adhesion to CS-1 could be detected”.
